Laboratory results from patent US7109193B2, “Tricyclic diazepines tocolytic oxytocin receptor antagonists” (Wyeth, priority 2001, dated 2006).

Each molecule was assayed against T1, human oxytocin receptor (Homo sapiens, UniProt P30559) (assay: Oxytocin binding in Chinese Hamster Ovary cell membranes expressing human oxytocin receptors). Settings: 100 nM, CHO cell membranes, [3H]oxytocin, values without parentheses, read-out: OT % inhibition @ 100% nM.
T1 construct: host or cells: CHO cells (pcDNA3.1 vector)
T1 sequence (P30559 1-389): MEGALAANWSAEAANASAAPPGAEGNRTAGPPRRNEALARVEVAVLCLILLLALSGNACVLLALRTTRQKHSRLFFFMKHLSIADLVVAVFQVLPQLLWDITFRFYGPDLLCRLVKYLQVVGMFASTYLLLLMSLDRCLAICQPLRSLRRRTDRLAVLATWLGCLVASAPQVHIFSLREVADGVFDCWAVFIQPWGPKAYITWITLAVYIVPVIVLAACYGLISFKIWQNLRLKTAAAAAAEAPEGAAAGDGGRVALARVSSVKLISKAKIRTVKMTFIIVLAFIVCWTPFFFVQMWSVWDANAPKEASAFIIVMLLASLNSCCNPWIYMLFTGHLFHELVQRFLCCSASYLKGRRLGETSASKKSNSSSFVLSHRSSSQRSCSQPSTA

Structure (SMILES) | inhibition at 0.1 µM [%]
C=CCN1CCN(C(=O)c2ccc3n2Cc2ccccc2N(C(=O)c2ccc(-c4cccc(OC)c4)c(C)c2)C3)CC1 [Example 223, (4-Allyl-1-piperazinyl){10-[(3′-methoxy-2-methyl[1,1′-biphenyl]-4-yl)carbonyl]-10,11-dihydro-5H-pyrrolo[2,1-c][1,4]benzodiazepin-3-yl}methanone] | 71
Cc1ccccc1-c1ccc(C(=O)N2Cc3ccc(C(=O)N(C)C4CCN(C)CC4)n3Cc3ccccc32)cc1 [Example 178, N-Methyl-10-[(2′-methyl[1,1′-biphenyl]-4-yl)carbonyl]-N-(1-methyl-4-piperidinyl)-10,11-dihydro-5H-pyrrolo[2,1-c][1,4]benzodiazepine-3-carboxamide] | 93
COc1cc(C(=O)N2Cc3ccc(C(=O)N4CCN(CCN(C)C)CC4)n3Cc3ccccc32)ccc1-c1ccccc1C [Example 201, {4-[2-(Dimethylamino)ethyl]-1-piperazinyl}{10-[(2-methoxy-2′-methyl[1,1′-biphenyl]-4-yl)carbonyl]-10,11-dihydro-5H-pyrrolo[2,1-c][1,4]benzodiazepin-3-yl}methanone] | 86
COc1ccccc1-c1ccc(C(=O)N2Cc3ccc(C(=O)N4CCN(CCN5CCOCC5)CC4)n3Cc3ccccc32)cc1OC [Example 214, {10-[(2,2′-Dimethoxy[1,1′-biphenyl]-4-yl)carbonyl]-10,11-dihydro-5H-pyrrolo[2,1-c][1,4]benzodiazepin-3-yl}{4-[2-(4-morpholinyl)ethyl]-1-piperazinyl}methanone] | 64
C=CCN1CCN(C(=O)c2ccc3n2Cc2ccccc2N(C(=O)c2ccc(-c4ccccc4C(F)(F)F)c(C)c2)C3)CC1 [Example 230, (4-Allyl-1-piperazinyl)(10-{[2-methyl-2′-(trifluoromethyl)[1,1′-biphenyl]-4-yl]carbonyl}-10,11-dihydro-5H-pyrrolo[2,1-c][1,4]benzodiazepin-3-yl)methanone] | 67
COc1cccc(-c2cc(OC)c(C(=O)N3Cc4ccc(C(=O)N(C)C5CCN(C)CC5)n4Cc4ccccc43)cc2Cl)c1 [Example 181, 10-[(6-Chloro-3,3′-dimethoxy[1,1′-biphenyl]-4-yl)carbonyl]-N-methyl-N-(1-methyl4-piperidinyl)-10,11-dihydro-5H-pyrrolo[2,1-c][1,4]benzodiazepine-3-carboxamide] | 100
CN(C)CCN1CCN(C(=O)c2ccc3n2Cc2ccccc2N(C(=O)c2ccc(-c4cccc5ccccc45)cc2Cl)C3)CC1 [Example 205, {10-[2-Chloro-4-(1-naphthyl)benzoyl]-10,11-dihydro-5H-pyrrolo[2,1-c][1,4]benzodiazepin-3-yl}{4-[2-(dimethylamino)ethyl]-1-piperazinyl}methanone] | 24
COc1cc(C(=O)N2Cc3ccc(C(=O)NCCC4CCCN4C)n3Cc3ccccc32)ccc1-c1ccccc1C (stereo not drawn) [Example 167, 10-[(2-Methoxy-2′-methyl[1,1′-biphenyl]-4-yl)carbonyl]-N-[2-(1-methyl-2-pyrrolidinyl)ethyl]-10,11-dihydro-5H-pyrrolo[2,1-c][1,4]benzodiazepine-3-carboxamide] | 60
COc1ccccc1-c1ccc(C(=O)N2Cc3ccc(C(=O)N(C)C4CCN(C)CC4)n3Cc3ccccc32)cc1 [Example 177, 10-[(2′-Methoxy[1,1′-biphenyl]-4-yl)carbonyl]-N-methyl-N-(1-methyl-4-piperidinyl)-10,11-dihydro-5H-pyrrolo[2,1-c][1,4]benzodiazepine-3-carboxamide] | 98
CN1CCCC1CCNC(=O)c1ccc2n1Cc1ccccc1N(C(=O)c1ccc(-c3cccc4ccccc34)cc1Cl)C2 (stereo not drawn) [Example 173, 10-[2-Chloro-4-(1-naphthyl)benzoyl]-N-[2-(1-methyl-2-pyrrolidinyl)ethyl]-10,11-dihydro-5H-pyrrolo[2,1-c][1,4]benzodiazepine-3-carboxamide] | 21
COc1cccc(-c2cc(OC)c(C(=O)N3Cc4ccc(C(=O)NCCN5CCCCC5)n4Cc4ccccc43)cc2Cl)c1 [Example 156, 10-[(6-Chloro-3,3′-dimethoxy[1,1′-biphenyl]-4-yl)carbonyl]-N-[2-(1-piperidinyl)ethyl]-10,11-dihydro-5H-pyrrolo[2,1-c][1,4]benzodiazepine-3-carboxamide] | 30
COc1cccc(-c2ccc(C(=O)N3Cc4ccc(C(=O)NCCN5CCCCC5)n4Cc4ccccc43)cc2OC)c1 [Example 159, 10-[(2,3′-Dimethoxy[1,1′-biphenyl]-4-yl)carbonyl]-N-[2-(1-piperidinyl)ethyl]-10,11-dihydro-5H-pyrrolo[2,1-c][1,4]benzodiazepine-3-carboxamide] | 50
COc1cc(C(=O)N2Cc3ccc(C(=O)N4CCN(C(C)C)CC4)n3Cc3ccccc32)ccc1-c1ccccc1C [Example 237, (4-isopropyl-1-piperazinyl){10-[(2-methoxy-2′-methyl[1,1′-biphenyl]-4-yl)carbonyl]-10,11-dihydro-5H-pyrrolo[2,1-c][1,4]benzodiazepin-3-yl}methanone] | 79
COc1cccc(-c2ccc(C(=O)N3Cc4ccc(C(=O)N5CCN(CCN6CCOCC6)CC5)n4Cc4ccccc43)cc2C)c1 [Example 208, {10-[(3′-Methoxy-2-methyl[1,1′-biphenyl]-4-yl)carbonyl]-10,11-dihydro-5H-pyrrolo[2,1-c][1,4]benzodiazepin-3-yl}{4-[2-(4-morpholinyl)ethyl]-1-piperazinyl}methanone] | 81
C=CCN1CCN(C(=O)c2ccc3n2Cc2ccccc2N(C(=O)c2cc(Cl)c(-c4cccc(OC)c4)cc2OC)C3)CC1 [Example 226, (4-Allyl-1-piperazinyl){10-[(6-chloro-3,3′-dimethoxy[1,1′-biphenyl]-4-yl)carbonyl]-10,11-dihydro-5H-pyrrolo[2,1-c][1,4]benzodiazepin-3-yl}methanone] | 71
COc1cccc(-c2ccc(C(=O)N3Cc4ccc(C(=O)NCCC5CCCN5C)n4Cc4ccccc43)cc2OC)c1 (stereo not drawn) [Example 172, 10-[(2,3′-Dimethoxy[1,1′-biphenyl]-4-yl)carbonyl]-N-[2-(1-methyl-2-pyrrolidinyl)ethyl]-10,11-dihydro-5H-pyrrolo[2,1-c][1,4]benzodiazepine-3-carboxamide] | 47
Cc1ccccc1-c1ccc(C(=O)N2Cc3ccc(C(=O)N4CCN(CCN5CCOCC5)CC4)n3Cc3ccccc32)cc1 [Example 209, {10-[(2′-Methyl[1,1′-biphenyl]-4-yl)carbonyl]-10,11-dihydro-5H-pyrrolo[2,1-c][1,4]benzodiazepin-3-yl}{4-[2-(4-morpholinyl)ethyl]-1-piperazinyl}methanone] | 81
COc1cccc(-c2cc(OC)c(C(=O)N3Cc4ccc(C(=O)N5CCN(C(C)C)CC5)n4Cc4ccccc43)cc2Cl)c1 [Example 239, {10-[(6-Chloro-3,3′-dimethoxy[1,1′-biphenyl]-4-yl)carbonyl]-10,11-dihydro-5H-pyrrolo[2,1-c][1,4]benzodiazepin-3-yl}(4-isopropyl-1-piperazinyl)methanone] | 61
C=CCN1CCN(C(=O)c2ccc3n2Cc2ccccc2N(C(=O)c2ccc(-c4ccccc4OC)c(OC)c2)C3)CC1 [Example 227, (4-Allyl-1-piperazinyl){10-[(2,2′-dimethoxy[1,1′-biphenyl]-4-yl)carbonyl]-10,11-dihydro-5H -pyrrolo[2,1-c][1,4]benzodiazepin-3-yl}methanone] | 69
COc1cccc(-c2ccc(C(=O)N3Cc4ccc(C(=O)N5CCN(C(C)C)CC5)n4Cc4ccccc43)cc2C)c1 [Example 235, (4-Isopropyl-1-piperazinyl){10-[(3′-methoxy-2-methyl[1,1′-biphenyl]-4-yl)carbonyl]-10,11-dihydro-5H-pyrrolo[2,1-c][1,4]benzodiazepin-3-yl}methanone] | 64
Cc1ccccc1-c1ccc(C(=O)N2Cc3ccc(C(=O)NCCC4CCCN4C)n3Cc3ccccc32)cc1 (stereo not drawn) [Example 166, 10-[(2′-Methyl[1,1′-biphenyl]-4-yl)carbonyl]-N-[2-(1-methyl-2-pyrrolidinyl)ethyl]-10,11-dihydro-5H-pyrrolo[2,1-c][1,4]benzodiazepine-3-carboxamide] | 27
Cc1cc(C(=O)N2Cc3ccc(C(=O)N(C)C4CCN(C)CC4)n3Cc3ccccc32)ccc1-c1ccccc1C(F)(F)F [Example 184, N-Methyl-N-(1-methyl-4-piperidinyl)-10-{[2-methyl-2′-(trifluoromethyl)[1,1′-biphenyl]-4-yl]carbonyl}-10,11-dihydro-5H-pyrrolo[2,1-c][1,4]benzodiazepine-3-carboxamide] | 83
Cc1ccccc1-c1ccc(C(=O)N2Cc3ccc(C(=O)N(C)C4CCN(C)C4)n3Cc3ccccc32)cc1 (stereo not drawn) [Example 188, N-Methyl-10-[(2′-methyl[1,1′-biphenyl]-4-yl)carbonyl]-N-(1-methyl-3-pyrrolidinyl)-10,11-dihydro-5H-pyrrolo[2,1-c][1,4]benzodiazepine-3-carboxamide] | 96
COc1ccccc1-c1ccc(C(=O)N2Cc3ccc(C(=O)NCCN4CCCCC4)n3Cc3ccccc32)cc1OC [Example 158, 10-[(2,2′-Dimethoxy[1,1′-biphenyl]-4-yl)carbonyl]-N-[2-(1-piperidinyl)ethyl]-10,11-dihydro-5H-pyrrolo[2,1-c][1,4]benzodiazepine-3-carboxamide] | 50
